Experimental data from PubChem BioAssay AID1963969 (Molecular Pharmacology Branch, DTP, NCI, 2024).

System: 817829-284-R-J1-PDC multi-cell spheroid viability
Assay: Anticancer human tumor 817829-284-R-J1-PDC patient-derived colon adenocarcinoma cell line growth inhibition [PI3K]
Settings: for IC50: curve of first compound; for viability, T/C: stronger effect = lower value
Outline: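 Three cell types, namely tumor cells, endothelial cells and mesenchymal stem cells, formed each spheroid. Combinations with four PI3K inhibitors were screened at clinically achievable concentrations decreasing by half-log, and spheroid viability was recorded.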

[1] = second compound 0.0316 µM, first compound 0.0316 µM
[2] = second compound 0.0316 µM, first compound 0.1 µM
[3] = second compound 0.1 µM, first compound 0.0316 µM
[4] = second compound 0.1 µM, first compound 0.1 µM
[5] = second compound 0.316 µM, first compound 0.0316 µM
[6] = second compound 0.316 µM, first compound 0.1 µM
[7] = second compound 1 µM, first compound 0.0316 µM
[8] = second compound 1 µM, first compound 0.1 µM
[9] = second compound 3.16 µM, first compound 0.0316 µM
[10] = second compound 3.16 µM, first compound 0.1 µM
[11] = second compound 10 µM, first compound 0.0316 µM
[12] = second compound 10 µM, first compound 0.1 µM
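Note: spheroids exposed to agents for seven days before readout.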
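Throughout, for viability, T/C: percent of vehicle DMSO control viability which is 100%.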

For `CC(C)n1nc(-c2ccc3oc(N)nc3c2)c2c(N)ncnc21` + CC(Nc1ncnc2nc[nH]c12)c1cc2cccc(Cl)c2c(=O)n1-c1ccccc1, the IC50 (second compound 0.0316 µM) was 19.7 nM, the IC50 (second compound 0.1 µM) was 33.9 nM and the IC50 (second compound 0.316 µM) was 15.8 nM. It also gave an IC50 (second compound 1 µM) of 19.5 nM, an IC50 (second compound 3.16 µM) of 9.43 nM and an IC50 (second compound 10 µM) of 10.9 nM. The viability, T/C (second compound 0.0316 µM, first compound 0.000316 µM) was 74.9%, the viability, T/C (second compound 0.0316 µM, first compound 0.001 µM) was 107% and the viability, T/C (second compound 0.0316 µM, first compound 0.00316 µM) was 57.3%. It also gave a viability, T/C (second compound 0.0316 µM, first compound 0.01 µM) of 62.7%, a viability, T/C [1] of 44.8% and a viability, T/C [2] of 18.1%. It also gave a viability, T/C (second compound 0.1 µM, first compound 0.000316 µM) of 100%, a viability, T/C (second compound 0.1 µM, first compound 0.001 µM) of 121% and a viability, T/C (second compound 0.1 µM, first compound 0.00316 µM) of 64%. The viability, T/C (second compound 0.1 µM, first compound 0.01 µM) was 80%, the viability, T/C [3] was 56.7% and the viability, T/C [4] was 18.7%. The viability, T/C (second compound 0.316 µM, first compound 0.000316 µM) was 135%, the viability, T/C (second compound 0.316 µM, first compound 0.001 µM) was 77.2% and the viability, T/C (second compound 0.316 µM, first compound 0.00316 µM) was 94.2%. It also gave a viability, T/C (second compound 0.316 µM, first compound 0.01 µM) of 59.9%, a viability, T/C [5] of 31.3% and a viability, T/C [6] of 27.5%. For the same compound, the viability, T/C (second compound 1 µM, first compound 0.000316 µM) was 89.4%, the viability, T/C (second compound 1 µM, first compound 0.001 µM) was 124% and the viability, T/C (second compound 1 µM, first compound 0.00316 µM) was 74.4%. For the same compound, the viability, T/C (second compound 1 µM, first compound 0.01 µM) was 66.3%, the viability, T/C [7] was 41.9% and the viability, T/C [8] was 18.9%. It also gave a viability, T/C (second compound 3.16 µM, first compound 0.000316 µM) of 106%, a viability, T/C (second compound 3.16 µM, first compound 0.001 µM) of 86.4% and a viability, T/C (second compound 3.16 µM, first compound 0.00316 µM) of 96%. It also gave a viability, T/C (second compound 3.16 µM, first compound 0.01 µM) of 47.4%, a viability, T/C [9] of 44.2% and a viability, T/C [10] of 23.8%. It also gave a viability, T/C (second compound 10 µM, first compound 0.000316 µM) of 80%, a viability, T/C (second compound 10 µM, first compound 0.001 µM) of 68.5% and a viability, T/C (second compound 10 µM, first compound 0.00316 µM) of 106%. It also gave a viability, T/C (second compound 10 µM, first compound 0.01 µM) of 52.1%, a viability, T/C [11] of 30.3% and a viability, T/C [12] of 17.8%.
In the case of `CC(Cn1ccc(-c2ccc(C#N)c(Cl)c2)n1)NC(=O)c1cc(C(C)O)[nH]n1` (stereo unspecified) + CC(Nc1ncnc2nc[nH]c12)c1cc2cccc(Cl)c2c(=O)n1-c1ccccc1, the IC50 (second compound 0.0316 µM) is reported as greater than 10000 nM, the IC50 (second compound 0.1 µM) is reported as 8490 nM and the IC50 (second compound 0.316 µM) is reported as greater than 10000 nM. For the same compound, the IC50 (second compound 1 µM) was greater than 10000 nM, the IC50 (second compound 3.16 µM) was greater than 10000 nM and the IC50 (second compound 10 µM) was greater than 10000 nM. It also gave a viability, T/C [1] of 71.5%, a viability, T/C [2] of 78.8% and a viability, T/C (second compound 0.0316 µM, first compound 0.316 µM) of 98.5%. It also gave a viability, T/C (second compound 0.0316 µM, first compound 1 µM) of 64.6%, a viability, T/C (second compound 0.0316 µM, first compound 3.16 µM) of 75.5% and a viability, T/C (second compound 0.0316 µM, first compound 10 µM) of 75.1%. It also gave a viability, T/C [3] of 106%, a viability, T/C [4] of 82.7% and a viability, T/C (second compound 0.1 µM, first compound 0.316 µM) of 95.7%. For the same compound, the viability, T/C (second compound 0.1 µM, first compound 1 µM) was 83.2%, the viability, T/C (second compound 0.1 µM, first compound 3.16 µM) was 87.7% and the viability, T/C (second compound 0.1 µM, first compound 10 µM) was 43.4%. For the same compound, the viability, T/C [5] was 109%, the viability, T/C [6] was 82.7% and the viability, T/C (second compound 0.316 µM, first compound 0.316 µM) was 105%. It also gave a viability, T/C (second compound 0.316 µM, first compound 1 µM) of 66.6%, a viability, T/C (second compound 0.316 µM, first compound 3.16 µM) of 99.8% and a viability, T/C (second compound 0.316 µM, first compound 10 µM) of 66.3%. For the same compound, the viability, T/C [7] was 83.9%, the viability, T/C [8] was 78.8% and the viability, T/C (second compound 1 µM, first compound 0.316 µM) was 100%. For the same compound, the viability, T/C (second compound 1 µM, first compound 1 µM) was 74.5%, the viability, T/C (second compound 1 µM, first compound 3.16 µM) was 91.3% and the viability, T/C (second compound 1 µM, first compound 10 µM) was 102%. For the same compound, the viability, T/C [9] was 90.9%, the viability, T/C [10] was 53.7% and the viability, T/C (second compound 3.16 µM, first compound 0.316 µM) was 79.1%. It also gave a viability, T/C (second compound 3.16 µM, first compound 1 µM) of 90.4%, a viability, T/C (second compound 3.16 µM, first compound 3.16 µM) of 47.5% and a viability, T/C (second compound 3.16 µM, first compound 10 µM) of 71.4%. For the same compound, the viability, T/C [11] was 67.6%, the viability, T/C [12] was 48.2% and the viability, T/C (second compound 10 µM, first compound 0.316 µM) was 71.3%. For the same compound, the viability, T/C (second compound 10 µM, first compound 1 µM) was 51%, the viability, T/C (second compound 10 µM, first compound 3.16 µM) was 67.5% and the viability, T/C (second compound 10 µM, first compound 10 µM) was 40.1%.
Compound `Cn1cnc2c(F)c(Nc3ccc(Br)cc3Cl)c(C(=O)NOCCO)cc21` + COc1c(OCCCN2CCOCC2)ccc2c3n(c(=NC(=O)c4cnc(N)nc4)nc12)CCN3 has an IC50 (second compound 0.00316 µM) of 487 nM, an IC50 (second compound 0.01 µM) of 82.7 nM and an IC50 (second compound 0.0316 µM) of 80.1 nM. The IC50 (second compound 0.1 µM) was less than 9.49 nM, the IC50 (second compound 0.316 µM) was less than 9.49 nM and the IC50 (second compound 1 µM) was less than 9.49 nM. The viability, T/C (second compound 0.00316 µM, first compound 0.00949 µM) was 63.7%, the viability, T/C (second compound 0.00316 µM, first compound 0.03 µM) was 43.5% and the viability, T/C (second compound 0.00316 µM, first compound 0.0949 µM) was 70.4%. For the same compound, the viability, T/C (second compound 0.00316 µM, first compound 0.3 µM) was 69%, the viability, T/C (second compound 0.00316 µM, first compound 0.949 µM) was 34% and the viability, T/C (second compound 0.00316 µM, first compound 3 µM) was 32.1%. For the same compound, the viability, T/C (second compound 0.01 µM, first compound 0.00949 µM) was 62.3%, the viability, T/C (second compound 0.01 µM, first compound 0.03 µM) was 72.2% and the viability, T/C (second compound 0.01 µM, first compound 0.0949 µM) was 35.5%. The viability, T/C (second compound 0.01 µM, first compound 0.3 µM) was 43.7%, the viability, T/C (second compound 0.01 µM, first compound 0.949 µM) was 32.7% and the viability, T/C (second compound 0.01 µM, first compound 3 µM) was 22.9%. The viability, T/C (second compound 0.0316 µM, first compound 0.00949 µM) was 66.5%, the viability, T/C (second compound 0.0316 µM, first compound 0.03 µM) was 50.9% and the viability, T/C (second compound 0.0316 µM, first compound 0.0949 µM) was 56%. It also gave a viability, T/C (second compound 0.0316 µM, first compound 0.3 µM) of 39.5%, a viability, T/C (second compound 0.0316 µM, first compound 0.949 µM) of 25.8% and a viability, T/C (second compound 0.0316 µM, first compound 3 µM) of 18%. For the same compound, the viability, T/C (second compound 0.1 µM, first compound 0.00949 µM) was 48%, the viability, T/C (second compound 0.1 µM, first compound 0.03 µM) was 27.9% and the viability, T/C (second compound 0.1 µM, first compound 0.0949 µM) was 39.6%. For the same compound, the viability, T/C (second compound 0.1 µM, first compound 0.3 µM) was 29.3%, the viability, T/C (second compound 0.1 µM, first compound 0.949 µM) was 24.4% and the viability, T/C (second compound 0.1 µM, first compound 3 µM) was 29.3%. It also gave a viability, T/C (second compound 0.316 µM, first compound 0.00949 µM) of 19.6%, a viability, T/C (second compound 0.316 µM, first compound 0.03 µM) of 14.8% and a viability, T/C (second compound 0.316 µM, first compound 0.0949 µM) of 16.3%. For the same compound, the viability, T/C (second compound 0.316 µM, first compound 0.3 µM) was 11.3%, the viability, T/C (second compound 0.316 µM, first compound 0.949 µM) was 11.7% and the viability, T/C (second compound 0.316 µM, first compound 3 µM) was 6.47%. It also gave a viability, T/C (second compound 1 µM, first compound 0.00949 µM) of 15.4%, a viability, T/C (second compound 1 µM, first compound 0.03 µM) of 7.31% and a viability, T/C (second compound 1 µM, first compound 0.0949 µM) of 5.89%. It also gave a viability, T/C (second compound 1 µM, first compound 0.3 µM) of 4.21%, a viability, T/C (second compound 1 µM, first compound 0.949 µM) of 4.29% and a viability, T/C (second compound 1 µM, first compound 3 µM) of 1.75%.
